ChEMBL document CHEMBL3826884, “Synthesis and biological evaluation of 3-substituted 5-benzylidene-1-methyl-2-thiohydantoins as potent NADPH oxidase (NOX) inhibitors” (Bioorg Med Chem, 2016)

What was measured:
NADPH oxidase 1 = biological target: T1, NADPH oxidase 1 (Homo sapiens, UniProt Q9Y5S8); experiment: Inhibition of human NOX1 expressed in Drosophila DUOX knockdown model assessed as decrease in ROS production by lucigenin chemiluminescence assay
T1 sequence (Q9Y5S8 whole entry): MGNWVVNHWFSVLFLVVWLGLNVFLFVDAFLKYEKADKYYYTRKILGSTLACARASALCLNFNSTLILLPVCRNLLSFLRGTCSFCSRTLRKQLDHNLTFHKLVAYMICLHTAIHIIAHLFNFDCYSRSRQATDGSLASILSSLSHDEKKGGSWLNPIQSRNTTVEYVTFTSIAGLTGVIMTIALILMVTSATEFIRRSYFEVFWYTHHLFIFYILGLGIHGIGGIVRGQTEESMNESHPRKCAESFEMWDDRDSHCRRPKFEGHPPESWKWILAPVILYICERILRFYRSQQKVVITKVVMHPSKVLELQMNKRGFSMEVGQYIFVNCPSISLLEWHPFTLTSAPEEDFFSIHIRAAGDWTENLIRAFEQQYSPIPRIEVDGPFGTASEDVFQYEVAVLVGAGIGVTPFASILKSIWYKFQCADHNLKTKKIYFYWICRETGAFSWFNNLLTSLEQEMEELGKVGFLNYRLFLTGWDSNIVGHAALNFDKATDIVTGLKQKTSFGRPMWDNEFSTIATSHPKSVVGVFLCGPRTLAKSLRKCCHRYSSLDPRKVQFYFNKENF

NADPH oxidase 4 = biological target: T2, NADPH oxidase 4 (Homo sapiens, UniProt Q9NPH5); experiment: Inhibition of human NOX4 expressed in Drosophila DUOX knockdown model assessed as decrease in ROS production by lucigenin chemiluminescence assay
T2 sequence (Q9NPH5 whole entry): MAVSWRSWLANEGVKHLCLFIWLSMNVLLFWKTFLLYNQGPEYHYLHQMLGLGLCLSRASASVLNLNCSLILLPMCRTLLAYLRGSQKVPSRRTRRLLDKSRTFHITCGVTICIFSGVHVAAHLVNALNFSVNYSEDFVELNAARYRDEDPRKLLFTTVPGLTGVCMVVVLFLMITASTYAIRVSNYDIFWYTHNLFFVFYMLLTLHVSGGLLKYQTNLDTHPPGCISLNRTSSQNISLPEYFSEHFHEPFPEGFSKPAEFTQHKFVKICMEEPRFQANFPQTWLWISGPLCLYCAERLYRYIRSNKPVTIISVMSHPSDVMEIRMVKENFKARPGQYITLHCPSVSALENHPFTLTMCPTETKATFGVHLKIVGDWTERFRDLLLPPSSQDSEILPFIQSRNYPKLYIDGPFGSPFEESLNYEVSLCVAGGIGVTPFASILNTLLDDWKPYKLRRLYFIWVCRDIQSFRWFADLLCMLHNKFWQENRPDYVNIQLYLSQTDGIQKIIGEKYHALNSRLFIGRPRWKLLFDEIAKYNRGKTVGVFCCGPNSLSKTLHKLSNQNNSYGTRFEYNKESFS

Homo sapiens = species on record: Homo sapiens; experiment: Selectivity ratio of Ki for human NOX1 expressed in Drosophila DUOX knockdown model to Ki for human NOX4 expressed in Drosophila DUOX knockdown model

| Structure (SMILES) | Ki (NADPH oxidase 1) | Ki (NADPH oxidase 4) | Ratio Ki (Homo sapiens) |
| --- | --- | --- | --- |
| CN1C(=S)N(c2ccccc2)C(=O)/C1=C/c1ccc(O)cc1O | 33.8 µM | 27.7 µM | – |
| CN1C(=S)N(C2CCCCC2)C(=O)/C1=C/c1ccc(O)cc1O | 26 µM | 37.6 µM | – |
| Cc1ccc(N2C(=O)/C(=C/c3cccc(O)c3O)N(C)C2=S)cc1 | 50.3 µM | 27 µM | – |
| CN1C(=S)N(C2CCCCC2)C(=O)/C1=C/c1ccc(N(C)C)cc1 | 12.3 µM | 35.6 µM | – |
| Cc1ccc(N2C(=O)/C(=C/c3ccc(O)cc3O)N(C)C2=S)cc1 | 27.1 µM | 34.6 µM | – |
| CN1C(=S)N(c2cccc(Cl)c2)C(=O)/C1=C/c1ccc(O)cc1O | 34.5 µM | 33.8 µM | – |
| CCc1ccc(N2C(=O)/C(=C/c3cccc(O)c3O)N(C)C2=S)cc1 | 27.9 µM | 26.4 µM | – |
| CN1C(=S)N(c2ccccc2)C(=O)/C1=C/c1cccc(O)c1O | 49.7 µM | 24 µM | – |

Stronger by Ki (NADPH oxidase 1), values ahead:

| Ki (NADPH oxidase 1) | Ki (NADPH oxidase 4) | Ratio Ki (Homo sapiens) | Structure (SMILES) |
| --- | --- | --- | --- |
| 6.58 µM | 6.83 µM | – | CN1C(=S)N(c2ccc3c(c2)CCC3)C(=O)/C1=C/c1ccc(O)cc1O |
| 1.02 µM | 2.33 µM | – | Cc1ccc(N2C(=O)/C(=C/c3ccc(N(C)C)cc3)N(C)C2=S)cc1 |
| 0.35 µM | 0.84 µM | – | CN1C(=S)N(c2cccc(Cl)c2)C(=O)/C1=C/c1ccc(N(C)C)cc1 |
| 1.95 µM | 0.88 µM | 2.2 | CN1C(=S)N(c2ccccc2)C(=O)/C1=C/c1ccc(N(C)C)cc1 |
| 8.4 µM | 2.39 µM | 3.5 | CCc1ccc(N2C(=O)/C(=C/c3ccc(O)cc3O)N(C)C2=S)cc1 |
| 8.04 µM | 13.1 µM | – | CN1C(=S)N(c2ccc3c(c2)CCC3)C(=O)/C1=C/c1ccc(N(C)C)cc1 |
| 4.39 µM | 2.63 µM | – | CCc1ccc(N2C(=O)/C(=C/c3ccc(N(C)C)cc3)N(C)C2=S)cc1 |
| 7.39 µM | 6.35 µM | – | CN1C(=S)N(C2CCCCC2)C(=O)/C1=C/c1cccc(O)c1O |
| 7.65 µM | 9.31 µM | – | CN1C(=S)N(c2cccc(Cl)c2)C(=O)/C1=C/c1cccc(O)c1O |
| 6.63 µM | 2.36 µM | 2.8 | CN1C(=S)N(c2ccc3c(c2)CCC3)C(=O)/C1=C/c1cccc(O)c1O |
